Experimental data: US20100324067A1, “TETRACYCLIC DIPYRANO-COUMARIN COMPOUNDS WITH ANTI-HIV AND ANTI-MYCOBACTERIUM TUBERCULOSIS ACTIVITIES” (priority 2007, published 2010)
Converted amounts (≈) assume the structure as drawn. Read-outs that look alike come from different tables or passages of the source.

Columns and labels:
host cells of the virus = assay: Cell toxicity to the host cells of the virus at 10 μM; format: cell-based
[1] = tested on: Mycobacterium tuberculosis H37Rv (ATCC 27294); assay: Microplate Alamar Blue Assay (MABA) in BACTEC 12B medium (TAACF screen); format: cell-based
HIV-1 [2] = assay: Inhibitory activity against HIV-1 (literature method, Chen et al. J Virol 1997); conditions: for inhibition at 1 µM: Human immunodeficiency virus 1, read-out: Anti-HIV (%, 1.0 μM)
Experimental: Inhibitory activity of the coumarin derivatives of the present invention against HIV-1.
Inhibitory activity of the compounds against HIV-1 is assayed using the literature method. The experimental conditions, procedures, reagents and so on of the experiment are referred to the reference of “ZHIWEI CHEN, PEI ZHOU, DAVID D. HO, et al. Genetically divergent strains of simian immuno-deficiency virus use CCR5 as a coreceptor for entry. Journal of Virology, 1997, 71(4): 2705-2714”.

HIV-1 [3] = conditions: cited from earlier work
[4] = tested on: CEM-SS cells (human T-lymphoblastic cells); conditions: cited from earlier work
H37Rv strain = H37Rv strain growth; Bioorg. Med. Chem., 2004, 1199-1207; cited from earlier work
[5] = read-out: anti-TB active compound (MIC90 less than 10 μg/mL), classification

Row | Structure (SMILES) | Cell toxicity (10 μM) (host cells of the virus) | IC50 [1] | MIC90 ([1]; MABA, H37Rv, read-out: MIC90) | melting point | inhibition at 1 µM (HIV-1 [2]) | also measured
1 | CCCc1cc(=O)oc2c3c(c4c(c12)OC(C)(C)C=C4)OC1CC1C3=O (stereo not drawn) [Example 70, 6,6,-dimethyl-4-propyl-10,11-cis-cyclopropyl-2H,6H,12H-benzo[1,2-b:3,4-b′:5,6-b″]tripyranyl-2,12-dione] | − | 3.31 µg/mL (≈ 9.38 µM) | 5.54 µg/mL (≈ 15.7 µM) | 113 to 115 °C | 68.6% | MIC90 [1, 5]: < 10 µg/mL; EC50 (HIV-1 [2]; Human immunodeficiency virus 1): 14.1 nM; anti-HIV-1 activity in vitro compared to (+)-calanolide A (HIV-1 [2]; in words): much higher inhibitory activity; therapeutic index, in words (HIV-1 [2]; in words): high therapeutic index; Therapeutic index (TI) = 50% cytotoxicity doses/50% effective dose (HIV-1 [2]; value in brackets after EC50): 709-2127
2 | CCCc1c(Cl)c(=O)oc2c3c(c4c(c12)OCC(C)C4OCC)OC(C)CC3=O (stereo not shown) [Example 96, 8-ethoxyl-7,10-dimethyl-4-n-propyl-3-chloro-7,8,10,11-tetrahydro-6H-benzo[2,3-f;2′,3′-h]-tripyranyl-2,12-dione] | − | 11.1 µg/mL (≈ 26.4 µM) | 22.2 µg/mL (≈ 52.8 µM) | 187 to 189 °C | 51.7% | 
3 | CC1CC(=O)c2c(c3c(c4c(CCC(F)(F)F)cc(=O)oc24)OC(c2ccccc2)C=C3)O1 (stereo not shown) [Example 74, 4-(3,3′, 3″-trifluoro-n-propyl)-6-phenyl-O-methyl-2H,6H, 2H-benzo[1,2-b:3,4-b′:5,6-b″]-tripyranyl-2,12-dione] | − | 5.7 µg/mL (≈ 12.5 µM) | 6.38 µg/mL (≈ 14 µM) | 171 to 173 °C | 47.6% | MIC90 [1, 5]: < 10 µg/mL
4 | C/C=C/C1C=Cc2c3c(c4oc(=O)cc(CC)c4c2O1)C(=O)CC(C)O3 (stereo not shown) [Example 87, 4-ethyl-6-propenyl-10-methyl-2H,6H,12H-benzo[1,2-b:3,4-b′:5,6-b″]-tripyranyl-2,12-d ione] | − | 51.2 µg/mL (≈ 145 µM) | > 100 µg/mL | 153 to 155 °C | 56.4% | 
5 | CCCCc1cc(=O)oc2c3c(c4c(c12)OC(C)C=C4)OC(C)CC3=O (stereo not shown) [Example 82, 6,10-dimethyl-4-n-butyl-2H,6H,12H-benzo[1,2-b:3,4-b′:5,6-b″]-tripyranyl-2,12-dione] | − | 36.3 µg/mL (≈ 102 µM) | 56.2 µg/mL (≈ 158 µM) | 128 to 129 °C | 75.4% | 
6 | C/C=C/C1C=Cc2c3c(c4oc(=O)c(F)c(CC)c4c2O1)C(=O)CC(C)O3 (stereo not shown) [Example 88, 4-ethyl-6-propenyl-3-fluoro-10-methyl-2H,6H,12H-benzo[1,2-b:3,4-b′:5,6-b″]-tripyranyl-2,12-dione] | − | 70.7 µg/mL (≈ 191 µM) | > 100 µg/mL | 158 to 161 °C | 46.2% | 
7 | CCCc1cc(=O)oc2c3c(c4c(c12)OC(CCC)C=C4)OC(C)CC3=O (stereo not shown) [Example 34, 10-methyl-4,6-di(-n-propyl)-2H,6H,12H-benzo[1,2-b:3,4-b′:5,6-b″]-tripyranyl-2,12-dione] | − | 2.88 µg/mL (≈ 7.8 µM) | 3.18 µg/mL (≈ 8.64 µM) | 158 to 160 °C | 54.1% | MIC90 [1, 5]: < 10 µg/mL
8 | CC1CC(=O)c2c(c3c(c4c(CN5CCN(C)CC5)cc(=O)oc24)OC(C)(C)C=C3)O1 (stereo not shown) [Example 7, 6,6,10-trimethyl-4-p-methylpiperazidinylmethylene-10,11-dihydro-6H-[2,3-f:2′,3′-h]-tri pyranyl-2,12-dione] | − |  |  | 238 to 239 °C | 48.3% | 
9 | CCc1c(F)c(=O)oc2c3c(c4c(c12)OC(C)C=C4)OC(C)CC3=O (stereo not shown) [Example 83, 6,10-dimethyl-4-ethyl-3-fluoro-2H, H, 12H-benzo[1,2-b:3,4-b′: 5,6-b″]-tripyranyl-2,12-dione] | − | 24.4 µg/mL (≈ 70.9 µM) | 27.7 µg/mL (≈ 80.4 µM) | 141 to 142 °C | 39.5% | 
10 | CCCc1cc(=O)oc2c3c(c4c(c12)OC(C)(C)C=C4)O[C@H](C)[C@@H](C)[C@@H]3O [(+)-Calanolide A, (+)-calanolide A] |  |  |  |  | 86% | Cell toxicity (10 μM), number printed before the class symbol (host cells of the virus; 10 μM): 6%; therapeutic index (TI) (HIV-1 [3]; J. MED. CHEM. 1996, 39, 1303): 16-279; EC50 (HIV-1 [3]; anti-HIV-1, literature, read-out: EC50): 100 nM; EC50 (HIV-1 [3]; from J. Med. Chem. 1996, 39(6):1303-13, unit inferred, read-out: EC50 (TI)): 100 to 200 nM; activity against TIBO of pyridinone-resistant A17 strains (HIV-1 [3]; resistant strain A17): active; activity against AZT-1-resistant strains (G-9106) of HIV-1 (HIV-1 [3]; resistant strain G-9106): active; CC50 [4]: 20000 nM; MIC90 (H37Rv strain): 3.13 µg/mL (≈ 8.45 µM)
11 | CCc1cc(=O)oc2c3c(c4c(c12)OC(C)C=C4)OC(C)CC3=O (stereo not shown) [Example 79, 6,10-dimethyl-4-ethyl-2H,6H,12H-benzo[1,2-b:3,4-b′:5,6-b″]-tripyranyl-2,12-dione] | − | 6.07 µg/mL (≈ 18.6 µM) | 6.84 µg/mL (≈ 21 µM) | 133 to 134 °C | 57.4% | 
